Laboratory results as given in patent publication US20250002467A1, “DESIGN, SYNTHESIS AND MECHANISMS OF ANTICANCER ACTIVITY OF NEW ACETYLATED 5-AMINOSALICYLATE-THIAZOLINONE HYBRID DERIVATIVES” (University of Sharjah, priority 2023, published 2025).

Key:
Type in all cases: cell-based
HeLa = experiment: SRB cytotoxicity assay, HeLa
Source text: (§1) Eight different cancer cell lines were acquired from the Radiobiology and Experimental Radio Oncology lab, University Medical Center, Hamburg University, Hamburg, Germany. MCF7, MDA-MB-231 (breast cancer), and A549 (lung cancer) cells were maintained in RPMI medium while HCT116 (colon cancer), HepG2 (liver cancer), U87, U373 (glioblastoma), and HeLa (cervical cancer) were maintained in DMEM supplemented with 10% FBS and 1% penicillin/streptomycin (Sigma Aldrich, Missouri, USA). Normal human fibroblast (F180) cells were maintained in DMEM supplemented with 15% FBS. Normal human mammary epithelial cell line (HME1) were maintained in DMEM/F-12 medium supplemented with 10% FBS. All incubations were done at 37° C. in a humidified atmosphere of 5% CO2. All cell lines were authenticated by short tandem repeat (STR) profiling. The CDK4 knockout cells (provided by Dr. Samrein Ahmed, University of Sharjah, United Arab Emirates) were generated by CRISPR-CAS9 technology and were maintained in DMEM supplemented with 10% FBS.
(§2) The cytotoxic effects of HH32 and HH33 compounds were evaluated at various concentrations ranging from 0.0001 to 100 μM by sulphrhodamine-B (SRB) assay as described previously. The anti-proliferative activity was expressed as growth inhibitory concentration (IC50) values, which were calculated by the sigmoidal dose-response curve fitting method using Graph pad prism 6 software (GraphPad Software, San Diego, CA, USA).

U87 = experiment: SRB cytotoxicity assay, U87; settings: for IC50: U87, SRB, mean ± SEM
Source text: as §1, §2

MDA-MB-231 = experiment: SRB cytotoxicity assay, MDA-MB-231
Source text: as §1, §2

[1] = tested on: MCF7, HCT-116, HeLa and A549 cells; experiment: Western blot protein expression analysis; settings: for cyclin E, cyclin D1 and CDK2 levels: G1-S phase transition proteins; for phospho-Rb (ser249): HCT116 and HeLa cells; for level of p-H2Ax (y-H2Ax): MCF7, HeLa, HCT116, and A549 cells, 24 h; for cleavage of caspase-8: all cell lines; for ATR/Chk1 signaling: four cell lines
Protocol: The protein expression analysis was done after treatment with […] of HH32 and HH33 compounds for 24 hours by western blot. Cell lysates were prepared using lysis buffer containing 20% SDS, glycerol, 1M Tris (pH 6.8) and supplemented with protease and phosphatase inhibitors (Sigma Aldrich, Missouri, USA). The proteins were separated by SDS-PAGE and transblotted into nitrocellulose membrane (Biorad, Hercules, CA, USA). Membrane were incubated overnight at 4° C. with the following primary antibodies: 7H2AX, H2Ax, p21, CDC2, CDC25c, cyclin B, c-Myc, Bid, ATM, p-ATM, ATR, p-ATR, Chk1, p-Chk1, Chk2, p-Chk2, caspase 9, caspase 8, pRb (Ser807/811) (Cell Signaling Technology, Massachusetts, USA), p53, cyclin A, cyclin E, cyclin D1, CDK2, Rb, pRb (Ser249) (Santa Cruz Biotech, Texas, USA) and β-actin (Sigma Aldrich, Missouri, USA). Membranes were then incubated with respective mouse/rabbit secondary antibody (Cell Signaling Technology, Massachusetts, USA) for 1 hour at room temperature and detected by enhanced chemiluminescence (ECL) (Biorad, Hercules, CA, USA) method using Chemi Doc imaging system (Biorad, Hercules, CA, USA). The protein bands were quantified using Image lab™ software (Biorad, Hercules, CA, USA).

HepG2 = experiment: SRB cytotoxicity assay, HepG2
Source text: as §1, §2

[2] = tested on: MCF7, HCT-116 and A549 cells; experiment: Neutral comet assay; settings: for level of DNA damage (tail moment): 0.5 and 1 μM, 24 hours, three cell lines
Protocol: MCF7, HCT-116 and A549 cells were treated with […] of HH32 or HH33 compounds for 24 hours and control cells were treated with vehicle (DMSO). A group of cells was treated with doxorubicin as a reference drug using the same treatment conditions. Comet assay was performed in neutral condition to detect DNA double-strand breaks using comet assay kit (Trevigen Inc., Maryland, USA) according to the manufacturer's instructions. The tail moment, which reflect the amount of DNA damage in each nucleus, was calculated in at least 50 cells using OpenComet software.

[3] = tested on: eight tested cancer cell lines; experiment: SRB cytotoxicity assay, eight cancer cell lines; settings: for viability of the eight tested cancer cell lines: SRB, 0.0001 to 100 μM; for selectivity index compared with doxorubicin: cancer cell lines versus normal cells
Source text: as §1, §2

A549 = experiment: SRB cytotoxicity assay, A549; settings: for IC50: A549, SRB, mean ± SEM
Source text: as §1, §2

[4] = tested on: MCF7, HCT-116, HeLa and A549 cells; experiment: Annexin V/PI apoptosis analysis; settings: for early apoptotic cell population (Annexin V+/PI-): 24 and 48 hours
Protocol: The cells were collected at 12, 24 and 48 hours after treatment with […] of HH32 and HH33 compounds. The detection of early and late apoptotic cell death was done using FITC Annexin V Apoptosis Detection Kit (Becton Dickenson, California, USA) according to the manufacturer's protocol. The data were analyzed by BD Accuri C6 flow cytometer (Becton Dickenson, New Jersey, USA).

[5] = tested on: MCF7, HCT116, HeLa and A549 cells; experiment: Cell cycle analysis by flow cytometry, four cell lines; settings: for G1 and S phases arrest: four cell lines
Protocol: The effect of the HH32 and HH33 compounds on the distribution of cell cycle at different time points (2, 4, 8, 24, 48, and 72 hours) was analyzed using flow cytometry. Briefly, the cells were harvested and fixed in 70% ethanol for 24 hours at −20° C. The fixed cells were treated with RNAase […] (Sigma Aldrich, Missouri, USA) and stained with propidium iodide […] (Sigma Aldrich, Missouri, USA). The data were acquired using BD Accuri C6 flow cytometer (Becton Dickenson, San Jose, CA, USA) and analysis was done using Flow Jo software (Tree Star, Inc, Ashland, OR, USA).

U373 = experiment: SRB cytotoxicity assay, U373
Source text: as §1, §2

## COC(=O)c1cc(NC2=NC(=O)C(=Cc3ccc(N(C)C)cc3)S2)ccc1OC(C)=O [HH33, Methyl 2-acetoxy-5-[(5-(4-dimethylaminobenzylidene)-4 (H)-oxo-1,3-thiazol-2-yl)-amino]benzoate]
HeLa; F180 versus HeLa
  Selectivity index: 16.3
HeLa; HME1 versus HeLa
  Selectivity index: 38.5
HeLa; HeLa cells
  activity compared with doxorubicin: superior activity than doxorubicin
U87; F180 versus U87
  Selectivity index: 3.8
U87; HME1 versus U87
  Selectivity index: 9
U87
  IC50: 1.03 ± 0.11 µM
MDA-MB-231; F180 versus MDA-MB-231
  Selectivity index: 0.99
MDA-MB-231; HME1 versus MDA-MB-231
  Selectivity index: 2.3
[1]; 0.5 and 1 μM, four cancer cell lines
  total c-Myc protein level: decreased
[1]
  cyclin E, cyclin D1 and CDK2 levels: slightly changed
  phospho-Rb (ser249): increased
  cleavage of caspase-8: cleaved
  ATR/Chk1 signaling: activate
[1]; HCT-116
  phospho-Rb (ser807/811): reduced
[1]; HeLa cells
  expression of p53 and p21: reduced
  phospho-Rb (ser807/811): increased
[1]; MCF7, HCT-116 and A549 cells
  expression of p53 and p21: substantially increased
  phosphorylation status of ATM and Chk2: increased significantly
[1]; MCF7, HeLa and A549 cells
  cleavage of caspase-9: increase
[1]; 0.5 and 1 μM
  level of p-H2Ax (y-H2Ax): marked elevation
[1]; compared with HH32
  reducing expression of G2/M progression proteins (cyclin A, cyclin B, CDC25c and CDC2/CDK1): more effective than HH32
HepG2; F180 versus HepG2
  Selectivity index: 10.3
HepG2; HME1 versus HepG2
  Selectivity index: 24
[2]; 1 μM, same concentration, three tested cell lines
  level of DNA double strand breaks compared with doxorubicin: higher than doxorubicin
[2]
  level of DNA damage (tail moment): increased
[2]; MCF7 and HCT-116 cells
  comet length compared with HH32-treated cells: markedly higher
[3]
  viability of the eight tested cancer cell lines: remarkable concentration-dependent decrease
  selectivity index compared with doxorubicin: superior in most of cancer cell lines than doxorubicin
A549
  IC50: 2.93 ± 0.83 µM
A549; F180 versus A549
  Selectivity index: 1.3
A549; HME1 versus A549
  Selectivity index: 3.2
[4]; HCT-116 cells
  late apoptotic/dead cells (Annexin V+/PI+): elevated
[4]; four cell lines
  early apoptotic cell population (Annexin V+/PI-): increased
[4]; four cell lines, with increasing concentration
  late apoptotic/dead cells (Annexin V+/PI+): increased
[5]
  percentage of cancer cells arrested at the G2/M border: up to 90%
  G1 and S phases arrest: no signs
U373; F180 versus U373
  Selectivity index: 0.17
U373; HME1 versus U373
  Selectivity index: 0.4

## COC(=O)c1cc(NC2=NC(=O)C(=Cc3ccc(C)cc3)S2)ccc1OC(C)=O [HH32, Methyl 2-acetoxy-5-[(5-(4-methylbenzylidene)-4 (H)-oxo-1,3-thiazol-2-yl)-amino]benzoate]
HeLa; F180 versus HeLa
  Selectivity index: 22.2
HeLa; HME1 versus HeLa
  Selectivity index: 44.65
HeLa; HeLa, SRB, mean ± SEM
  IC50: 0.6 ± 0.47 µM
U87; F180 versus U87
  Selectivity index: 2.04
U87; HME1 versus U87
  Selectivity index: 4.1
U87
  IC50: 6.53 ± 0.09 µM
MDA-MB-231; F180 versus MDA-MB-231
  Selectivity index: 0.87
MDA-MB-231; HME1 versus MDA-MB-231
  Selectivity index: 1.7
MDA-MB-231; MDA-MB-231, SRB, mean ± SEM
  IC50: 15.35 ± 0.08 µM
[1]; 1 μM, MCF7 and HCT-116 cells
  total c-Myc protein level: downregulation
[1]
  cyclin E, cyclin D1 and CDK2 levels: slightly changed
  phospho-Rb (ser249): increased
  cleavage of caspase-8: cleaved
  ATR/Chk1 signaling: activate
[1]; HCT-116
  phospho-Rb (ser807/811): reduced
[1]; HeLa cells
  expression of p53 and p21: reduced
  phospho-Rb (ser807/811): increased
  phosphorylation status of ATM and Chk2: increased significantly
[1]; MCF7, HCT-116 and A549 cells
  expression of p53 and p21: substantially increased
  phosphorylation status of ATM and Chk2: increased significantly
[1]; 0.5 and 1 μM
  level of p-H2Ax (y-H2Ax): marked elevation
HepG2; F180 versus HepG2
  Selectivity index: 5.36
HepG2; HME1 versus HepG2
  Selectivity index: 10.8
HepG2; HepG2, SRB, mean ± SEM
  IC50: 2.49 ± 0.11 µM
[2]
  level of DNA damage (tail moment): increased
[3]
  viability of the eight tested cancer cell lines: remarkable concentration-dependent decrease
  selectivity index compared with doxorubicin: superior in most of cancer cell lines than doxorubicin
A549
  IC50: 6.17 ± 0.38 µM
A549; F180 versus A549
  Selectivity index: 2.16
A549; HME1 versus A549
  Selectivity index: 4.3
[4]; HCT-116 cells
  late apoptotic/dead cells (Annexin V+/PI+): elevated
[4]; four cell lines
  early apoptotic cell population (Annexin V+/PI-): no sign of early apoptosis induction
[5]
  G1 and S phases arrest: no signs
U373; F180 versus U373
  Selectivity index: 0.45
U373; HME1 versus U373
  Selectivity index: 0.9
U373; U373, SRB, mean ± SEM
  IC50: 29.38 ± 0.08 µM
